# Reference: patent publication US12186317B2, “Inhibitors of alpha-amino-beta-carboxymuconic acid semialdehyde decarboxylase” (TES Pharma S.r.l., priority 2018, dated 2025)
# Target: T1, hACMSD (ACMSD1) (Homo sapiens, UniProt Q8TDX5)
# T1 construct: made in house; host or cells: Pichia pastoris
# Test: Determination of ACMSD1 inhibition, spectrophotometrical in vitro assay (conversion of 3OH-anthranilic acid into ACMS)
# Format: biochemical
# Details: HAA concentration of 10 μM; recombinant ACMSD1 from Pichia pastoris; 25° C.; absorbance at 360 nm
# Protocol: The activity of compounds as inhibitors of ACMSD1 is determined in a spectrophotometrical in vitro assay. The pre-assay mixture is incubated and a compound of Formula (I) or (II), or a pharmaceutically acceptable salt thereof, and ACMSD1 solution is then added. The effect of ACMS concentration on the enzyme activity is investigated by varying 3-hydroxyanthranilic acid (30H-HA) concentration in the pre-assay mixture. Kinetic parameters are calculated from the initial velocity data using a Lineweaver-Burk plot.
# The pre-assay mixture consisting of 3-hydroxyanthranilic acid (30H-HA), 3-hydroxyanthranilic acid, 3,4-diOxygenase (HAO), and a dialyzed crude extract of E. coli BL21 (DE3) cells expressing the recombinant enzyme, was incubated at 25° C. with monitoring of the increase in absorbance at 360 nm due to the formation of ACMS from 30H-HA. After the reaction was completed within ˜2 mins, an aliquot of ACMSD1 solution (prepared and purified from Pichia pastoris overexpressing the recombinant enzyme) was added, and the decrease in absorbance at 360 nm was followed at 15 second intervals. The effect of ACMS concentration on the enzyme activity was investigated by varying 30H-HA concentration from 2 to 20 μM. Kinetic parameters were calculated from the initial velocity data by using the Lineweaver-Burk plot.
# The rate of the decrease in absorbance caused by ACMSD1 was calculated by subtracting that of the control reaction mixture without ACMSD from that described above. One unit of ACMSD activity was indicated as the amount of enzyme that converts 1 mmol of ACMS per minute at 25° C.
# The enzymatic activity was determined at a HAA concentration of 10 μM in the presence of the compounds in Table 1 below. […] In Table 1, A is <0.1 μM; B is 0.1 to 1 μM; C is 1 to 10 μM; and D is >10 μM.
# T1 sequence (Q8TDX5 whole entry): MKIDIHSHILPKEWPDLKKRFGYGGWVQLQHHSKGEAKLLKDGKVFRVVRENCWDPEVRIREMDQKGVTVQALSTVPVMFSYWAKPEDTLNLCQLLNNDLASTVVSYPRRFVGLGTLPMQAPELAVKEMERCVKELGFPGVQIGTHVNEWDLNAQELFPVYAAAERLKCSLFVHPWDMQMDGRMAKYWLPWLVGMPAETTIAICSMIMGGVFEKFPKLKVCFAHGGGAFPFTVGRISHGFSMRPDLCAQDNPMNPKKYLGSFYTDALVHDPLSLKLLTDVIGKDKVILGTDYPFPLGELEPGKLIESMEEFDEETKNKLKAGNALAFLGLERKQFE
row,Structure (SMILES),IC50 [µM]
1,N#Cc1c(-c2cccs2)nc(SCc2cccc(-c3nn[nH]n3)c2)[nH]c1=O [I-43],< 0.1
2,N#Cc1c(-c2cccs2)nc(N[C@H]2CC[C@H](C(=O)O)CC2)[nH]c1=O [I-46],> 10
3,N#Cc1c(-c2cccs2)nc(NCc2cccc(C(=O)O)c2)[nH]c1=O [I-48],1 to 10
4,N#Cc1c(-c2cccs2)nc(NCc2cccc(Cc3nnn[nH]3)c2)[nH]c1=O [I-49],< 0.1
5,N#Cc1c(-c2cccs2)nc(NCc2cccc(CC(=O)O)c2)[nH]c1=O [I-50],1 to 10
6,N#Cc1c(-c2cccs2)nc(NCc2ccc(-c3nnn[nH]3)cc2)[nH]c1=O [I-51],0.1 to 1
